Test results: the NIST ThermoML archive (doi:10.1021/acs.jced.5b00845)
± gives the expanded uncertainty stated by the source.

How the values were obtained:
[1] = cn = amount concentration of the nth substance listed, in mol/dm3; conditions: 100 kPa, Liquid, Capillary tube (Ostwald / Ubbelohde) method
[2] = mn = molality of the nth substance listed, in mol/kg; conditions: 100 kPa, Liquid, Capillary tube (Ostwald / Ubbelohde) method
[3] = 100 kPa, Liquid, Capillary tube (Ostwald / Ubbelohde) method

O=C(CO)[C@@H](O)[C@H](O)[C@H](O)CO [D-fructose] + O
viscosity [mPa·s], [1]
Conditions	c1 = 0.0628	c1 = 0.06594	c1 = 0.08345	c1 = 0.1124	c1 = 0.1285	c1 = 0.1523
288.15 K	1.174 ± 0.12	1.175 ± 0.12	1.185 ± 0.12	1.201 ± 0.12	1.209 ± 0.12	1.222 ± 0.12
298.15 K	0.916 ± 0.092	0.917 ± 0.092	0.924 ± 0.093	0.935 ± 0.094	0.941 ± 0.094	0.951 ± 0.095
308.15 K	0.739 ± 0.074	0.74 ± 0.074	0.745 ± 0.075	0.754 ± 0.076	0.759 ± 0.076	0.766 ± 0.077
318.15 K	0.61 ± 0.061	0.611 ± 0.061	0.614 ± 0.062	0.621 ± 0.062	0.624 ± 0.063	0.629 ± 0.063

O=C[C@H](O)[C@@H](O)[C@H](O)CO [D-xylose] + O
viscosity [mPa·s], [2]
Conditions	m1 = 0.05317	m1 = 0.06636	m1 = 0.07781	m1 = 0.08585	m1 = 0.1009	m1 = 0.1145
288.15 K	1.159 ± 0.12	1.165 ± 0.12	1.169 ± 0.12	1.173 ± 0.12	1.179 ± 0.12	1.185 ± 0.12
298.15 K	0.906 ± 0.091	0.91 ± 0.091	0.914 ± 0.092	0.917 ± 0.092	0.921 ± 0.092	0.925 ± 0.093
308.15 K	0.732 ± 0.073	0.735 ± 0.074	0.737 ± 0.074	0.739 ± 0.074	0.743 ± 0.074	0.746 ± 0.075
318.15 K	0.606 ± 0.061	0.608 ± 0.061	0.61 ± 0.061	0.612 ± 0.061	0.614 ± 0.062	0.618 ± 0.062

N.O=P(O)(O)O [ammonium dihydrogen phosphate] + O
viscosity [mPa·s], [2]
Conditions	288.15 K	298.15 K	308.15 K	318.15 K
m1 = 0.5	1.29 ± 0.13	1.014 ± 0.1	0.822 ± 0.082	0.659 ± 0.066
m1 = 1	1.472 ± 0.15	1.172 ± 0.12	0.942 ± 0.094	0.741 ± 0.074
m1 = 1.5	1.672 ± 0.17	1.332 ± 0.13	1.049 ± 0.11	0.822 ± 0.082
m1 = 2	1.831 ± 0.18	1.463 ± 0.15	1.161 ± 0.12	0.908 ± 0.091

CO[C@H]1O[C@H](CO)[C@@H](O)[C@H](O)[C@H]1O [methyl-α-D-glucopyranoside] + O
viscosity [mPa·s], [2]
Conditions	m1 = 0.06502	m1 = 0.07733	m1 = 0.09597	m1 = 0.1109	m1 = 0.1219	m1 = 0.122	m1 = 0.1465
288.15 K	1.174 ± 0.12	1.181 ± 0.12	1.191 ± 0.12	1.2 ± 0.12	1.207 ± 0.12	1.206 ± 0.12	1.219 ± 0.12
298.15 K	0.917 ± 0.092	0.922 ± 0.092	0.929 ± 0.093	0.935 ± 0.094	0.941 ± 0.094	0.94 ± 0.094	0.95 ± 0.095
308.15 K	0.74 ± 0.074	0.744 ± 0.075	0.749 ± 0.075	0.754 ± 0.076	0.758 ± 0.076	0.757 ± 0.076	0.765 ± 0.077
318.15 K	0.612 ± 0.061	0.615 ± 0.062	0.619 ± 0.062	0.623 ± 0.062	0.625 ± 0.063	0.626 ± 0.063	0.631 ± 0.063

O=P([O-])(O)O.[K+] [monopotassium phosphate] + O
viscosity [mPa·s], [2]
Conditions	288.15 K	298.15 K	308.15 K	318.15 K
m1 = 0.25	1.236 ± 0.12	0.972 ± 0.097	0.777 ± 0.078	0.633 ± 0.063
m1 = 0.5	1.301 ± 0.13	1.025 ± 0.1	0.815 ± 0.082	0.666 ± 0.067
m1 = 1	1.539 ± 0.15	1.159 ± 0.12	0.939 ± 0.094	0.763 ± 0.077
m1 = 1.25	1.636 ± 0.16	1.294 ± 0.13	1.027 ± 0.1	0.84 ± 0.084

O=P([O-])(O)O.[Na+] [sodium dihydrogen phosphate] + O
viscosity [mPa·s], [2]
Conditions	288.15 K	298.15 K	308.15 K	318.15 K
m1 = 0.5	1.427 ± 0.14	1.093 ± 0.11	0.88 ± 0.088	0.723 ± 0.073
m1 = 1	1.731 ± 0.17	1.332 ± 0.13	1.074 ± 0.11	0.875 ± 0.088
m1 = 1.5	2.139 ± 0.21	1.63 ± 0.16	1.267 ± 0.13	1.051 ± 0.11
m1 = 2	2.65 ± 0.27	1.987 ± 0.2	1.457 ± 0.15	1.257 ± 0.13

O=P([O-])([O-])[O-].[K+].[K+].[K+] [tripotassium phosphate] + O
viscosity [mPa·s], [2]
Conditions	288.15 K	298.15 K	308.15 K	318.15 K
m1 = 0.5	1.414 ± 0.14	1.133 ± 0.11	0.915 ± 0.092	0.708 ± 0.071
m1 = 1	1.7 ± 0.17	1.349 ± 0.14	1.09 ± 0.11	0.838 ± 0.084
m1 = 1.5	2.004 ± 0.2	1.598 ± 0.16	1.281 ± 0.13	1.003 ± 0.1
m1 = 2	2.299 ± 0.23	1.806 ± 0.18	1.441 ± 0.14	1.116 ± 0.11

O [water]
[3]
Conditions	viscosity [mPa·s]
288.15 K	1.138 ± 0.11
298.15 K	0.89 ± 0.089
308.15 K	0.719 ± 0.072
318.15 K	0.596 ± 0.06

CO[C@H]1O[C@H](CO)[C@@H](O)[C@H](O)[C@@H]1O [α-methyl mannopyranoside] + O
viscosity [mPa·s], [2]
Conditions	m1 = 0.05551	m1 = 0.0769	m1 = 0.09681	m1 = 0.1166	m1 = 0.1344	m1 = 0.1466	m1 = 0.1632
288.15 K	1.172 ± 0.12	1.185 ± 0.12	1.197 ± 0.12	1.209 ± 0.12	1.22 ± 0.12	1.227 ± 0.12	1.237 ± 0.12
298.15 K	0.916 ± 0.092	0.925 ± 0.093	0.934 ± 0.094	0.943 ± 0.094	0.951 ± 0.095	0.956 ± 0.096	0.964 ± 0.097
308.15 K	0.739 ± 0.074	0.746 ± 0.075	0.753 ± 0.075	0.76 ± 0.076	0.766 ± 0.077	0.77 ± 0.077	0.775 ± 0.078
318.15 K	0.611 ± 0.061	0.617 ± 0.062	0.623 ± 0.062	0.628 ± 0.063	0.633 ± 0.063	0.636 ± 0.064	0.64 ± 0.064
